Experimental data: patent US10004701B2, “Methods and compositions for treating infection” (UNIVERSITY OF ROCHESTER, priority 2012, dated 2018)
Where a name gives a salt, the structure may show the parent alone. Read-outs that look alike come from different tables or passages of the source.

Legend:
Assay in all cases: AK assay 384-well format, Prestwick library screening
[1] = test system: S. aureus strain USA300-0114; format: cell-based, Staphylococcus aureus; conditions: 50 μM final drug concentration; for fold induction at 50 µM: Staphylococcus aureus, USA300, 3 h, planktonic S. aureus, read-out: AK-based Prestwick Library Screening Results, S. aureus (increase in extracellular AK activity)
E. faecium = format: cell-based, Enterococcus faecium; conditions: 50 μM final drug concentration; for fold induction at 50 µM: Enterococcus faecium, 3 h, planktonic E. faecium, read-out: AK-based Prestwick Library Screening Results, E. faecium (increase in extracellular AK activity)
E. cloacae = format: cell-based, Enterobacter cloacae; conditions: 50 μM final drug concentration; for fold induction at 50 µM: Enterobacter cloacae, 3 h, planktonic E. cloacae, read-out: AK-based Prestwick Library Screening Results, E. cloacae (increase in extracellular AK activity)
E. coli = format: cell-based, Escherichia coli; conditions: 50 μM final drug concentration; for fold induction at 50 µM: Escherichia coli, 3 h, planktonic E. coli, read-out: AK-based Prestwick Library Screening Results, E. coli (increase in extracellular AK activity)
K. pneumoniae = format: cell-based, Klebsiella pneumoniae; conditions: 50 μM final drug concentration; for fold induction at 50 µM: Klebsiella pneumoniae, 3 h, planktonic K. pneumoniae, read-out: AK-based Prestwick Library Screening Results, K. pneumoniae (increase in extracellular AK activity)
P. aeruginosa = format: cell-based, Pseudomonas aeruginosa; conditions: 50 μM final drug concentration; for fold induction at 50 µM: Pseudomonas aeruginosa, 3 h, planktonic P. aeruginosa, read-out: AK-based Prestwick Library Screening Results, P. aeruginosa (increase in extracellular AK activity)
[2] = test system: A. baumannii strain 98-37-09; format: cell-based, Acinetobacter baumannii; conditions: 50 μM final drug concentration; for fold induction at 50 µM: Acinetobacter baumannii, 983709, 3 h, planktonic A. baumannii, read-out: AK-based Prestwick Library Screening Results, A. baumannii (increase in extracellular AK activity)
[3] = cutoff for positive-scoring molecules 3-fold increase

SMILES	fold induction at 50 µM [1, 3]	fold induction at 50 µM (E. faecium; [3])	fold induction at 50 µM (E. cloacae; [3])	fold induction at 50 µM (E. coli; [3])	fold induction at 50 µM (K. pneumoniae; [3])	fold induction at 50 µM (P. aeruginosa; [3])	fold induction at 50 µM [2, 3]	fold induction at 50 µM ([1]; […])	fold induction at 50 µM (E. faecium; […])	fold induction at 50 µM (E. cloacae; […])	fold induction at 50 µM (E. coli; […])	fold induction at 50 µM (K. pneumoniae; […])	fold induction at 50 µM (P. aeruginosa; […])	fold induction at 50 µM ([2]; […])	other results
CCOC(=O)n1ccn(C)c1=S [Carbimazole]	0.6	0.9	1.2	0.8	0.7	0.7	0.8	–	–	–	–	–	–	–	–
NCCC(=O)NCCc1c[nH]cn1 [Carcinine]	–	–	–	–	–	–	–	0.7	0.9	0.8	0.8	0.6	0.8	0.8	–
CCCC(C)(COC(N)=O)COC(=O)NC(C)C (stereo not drawn) [Carisoprodol]	–	–	–	–	–	–	–	0.7	0.9	0.8	0.9	0.6	0.9	0.8	–
CC(C)(C)NCC(O)COc1cccc2c1CCC(=O)N2 (stereo not drawn) [Carteolol hydrochloride]	1.1	1	1.1	1.2	0.8	1.1	1	–	–	–	–	–	–	–	–
CCC1=C[C@@H]2CN3CCc4c([nH]c5ccccc45)[C@@](C(=O)OC)(C2)[C@@H]13 [Catharanthine]	–	–	–	–	–	–	–	–	–	–	–	–	–	–	AK-based Prestwick Library Screening Results, S. aureus (increase in extracellular AK activity) ([1]; 384-well format, […]): 0.8; AK-based Prestwick Library Screening Results, E. faecium (increase in extracellular AK activity) (E. faecium; 384-well format, […]): 1.0; AK-based Prestwick Library Screening Results, E. cloacae (increase in extracellular AK activity) (E. cloacae; 384-well format, […]): 1.0; AK-based Prestwick Library Screening Results, E. coli (increase in extracellular AK activity) (E. coli; 384-well format, […]): 1.0; AK-based Prestwick Library Screening Results, K. pneumoniae (increase in extracellular AK activity) (K. pneumoniae; 384-well format, […]): 0.8; AK-based Prestwick Library Screening Results, P. aeruginosa (increase in extracellular AK activity) (P. aeruginosa; 384-well format, […]): 0.7; AK-based Prestwick Library Screening Results, A. baumannii (increase in extracellular AK activity) ([2]; 384-well format, […]): 0.8
N[C@@H](C(=O)N[C@@H]1C(=O)N2C(C(=O)O)=C(Cl)CS[C@H]12)c1ccccc1 [Cefaclor]	0.5	0.9	0.7	10.7	2.5	0.5	1.5	–	–	–	–	–	–	–	–
